Among the data in patent US10669268B2, “Bicyclic derivatives” (Hoffmann-La Roche Inc., priority 2012, dated 2020) are IC50 values, retold here.

By pIC50 is commonly meant the IC50 on a negative log10 scale, so that one unit is a factor of ten.

pIC50: −log10 of the molar value.

The test has as its target ATX (human His-tagged) (Homo sapiens (Human), UniProt Q13822). Briefly: Human ATX enzyme inhibition assay (fluorescence quenching, MR121 substrate). The test is classed as biochemical. Conditions: 30 nM ATX, 1 μM MR121 substrate, 30° C., pH 8.0. The gist of the method: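 Tris-HCl buffer at pH 8.0 contained 140 mM NaCl, 5 mM KCl, 1 mM each CaCl2 and MgCl2, and 0.01% Triton X-100. The MR121 substrate (1 μM final) was incubated with enzyme for 15 min at 30 °C, and activity was read by fluorescence quenching.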
`Cc1cc(OCC(=O)N2C[C@@H]3CN(C(=O)[C@@H]4CCc5[nH]nnc5C4)C[C@H]3C2)c(C(C)C)cc1C#N` [Example 19.27, 4-[2-[(3aS,6aS)-5-[(5R)-4,5,6,7-tetrahydro-1H-benzotriazole-5-carbonyl]-1,3,3a,4,6,6a-hexahydropyrrolo[3,4-c]pyrrol-2-yl]-2-oxoethoxy]-2-methyl-5-propan-2-ylbenzonitrile] gave a pIC50 of 8.22. In turn, `O=C(c1cc2ccccc2c(OCC(F)(F)F)n1)N1C[C@@H]2CN(C(=O)[C@@H]3CCc4[nH]nnc4C3)C[C@H]2C1` [Example 19.28, [(3aS,6aS)-5-[(5R)-4,5,6,7-tetrahydro-1H-benzotriazole-5-carbonyl]-1,3,3a,4,6,6a-hexahydropyrrolo[3,4-c]pyrrol-2-yl]-[1-(2,2,2-trifluoroethoxy)isoquinolin-3-yl]methanone] had a pIC50 of 8.70. In turn, `CC(C)(C)c1cc(Br)ccc1OCC(=O)N1C[C@@H]2CN(C(=O)[C@@H]3CCc4[nH]nnc4C3)C[C@H]2C1` [Example 19.29, 1-[(3aS,6aS)-5-[(5R)-4,5,6,7-tetrahydro-1H-benzotriazole-5-carbonyl]-1,3,3a,4,6,6a-hexahydropyrrolo[3,4-c]pyrrol-2-yl]-2-(4-bromo-2-tert-butylphenoxy)ethanone] showed a pIC50 of 9.00. Under `CC(C)(C)c1cc(Br)ccc1OCC(=O)N1C[C@@H]2CN(C(=O)c3ccc4[nH]nnc4c3)C[C@H]2C1` [Example 19.30, 1-[(3aS,6aS)-5-(1H-benzotriazole-5-carbonyl)-1,3,3a,4,6,6a-hexahydropyrrolo[3,4-c]pyrrol-2-yl]-2-(4-bromo-2-tert-butylphenoxy)ethanone] stands 8.30; under `CC(C)(C)c1cc(C#N)ccc1OCC(=O)N1C[C@@H]2CN(C(=O)[C@@H]3CCc4[nH]nnc4C3)C[C@H]2C1` [Example 19.31, 4-[2-[(3aS,6aS)-5-[(5R)-4,5,6,7-tetrahydro-1H-benzotriazole-5-carbonyl]-1,3,3a,4,6,6a-hexahydropyrrolo[3,4-c]pyrrol-2-yl]-2-oxoethoxy]-3-tert-butylbenzonitrile], 8.70.

In turn, `O=C(COc1ccc(OC(F)(F)F)cc1)N1C[C@@H]2CN(C(=O)[C@@H]3CCc4[nH]nnc4C3)C[C@H]2C1` [Example 19.34, 1-[(3aS,6aS)-5-[(5R)-4,5,6,7-tetrahydro-1H-benzotriazole-5-carbonyl]-1,3,3a,4,6,6a-hexahydropyrrolo[3,4-c]pyrrol-2-yl]-2-[4-(trifluoromethoxy)phenoxy]ethanone] had a pIC50 of 8.52.

For `CCOc1nc(C(=O)N2C[C@@H]3CN(C(=O)[C@@H]4CCc5[nH]nnc5C4)C[C@H]3C2)cc2ccccc12` [Example 19.35, [(3aS,6aS)-5-[(5R)-4,5,6,7-tetrahydro-1H-benzotriazole-5-carbonyl]-1,3,3a,4,6,6a-hexahydropyrrolo[3,4-c]pyrrol-2-yl]-(1-ethoxyisoquinolin-3-yl)methanone], the negative logarithm of the IC50 (pIC50) was 8.70. Under `CCOc1cc(C(=O)N2C[C@@H]3CN(C(=O)c4ccc5[nH]nnc5c4)C[C@H]3C2)nc2ccccc12` [Example 19.37, ((3aS,6aS)-5-(1H-benzo[d][1,2,3]triazole-5-carbonyl)hexahydropyrrolo[3,4-c]pyrrol-2(1H)-yl)(4-ethoxyquinolin-2-yl)methanone] stands 7.82; under `O=C(c1ccc2[nH]nnc2c1)N1C[C@H]2CN(C(=O)c3cc(OCC(F)(F)F)c4ccccc4n3)C[C@@H]2C1` [Example 19.38, ((3aS,6aS)-5-(1H-benzo[d][1,2,3]triazole-5-carbonyl)hexahydropyrrolo[3,4-c]pyrrol-2(1H)-yl)(4-(2,2,2-trifluoroethoxy)quinolin-2-yl)methanone], 8.30; under `O=C(c1cnc(OC2CCC2)c(C(F)(F)F)c1)N1C[C@@H]2CN(C(=O)c3ccc4[nH]nnc4c3)C[C@H]2C1` [Example 19.39, ((3aS,6aS)-5-(1H-benzo[d][1,2,3]triazole-5-carbonyl)hexahydropyrrolo[3,4-c]pyrrol-2(1H)-yl)(6-cyclobutoxy-5-(trifluoromethyl)pyridin-3-yl)methanone], 8.15. With `COCCOc1ncc(C(=O)N2C[C@@H]3CN(C(=O)c4ccc5[nH]nnc5c4)C[C@H]3C2)cc1Br` [Example 19.40, ((3aS,6aS)-5-(1H-benzo[d][1,2,3]triazole-5-carbonyl)hexahydropyrrolo[3,4-c]pyrrol-2(1H)-yl)(5-bromo-6-(2-methoxyethoxy)pyridin-3-yl)methanone], the pIC50 is 7.00.

As to `O=C(c1cnc(OCC2CC2)c(Br)c1)N1C[C@@H]2CN(C(=O)c3ccc4[nH]nnc4c3)C[C@H]2C1` [Example 19.41, ((3aS,6aS)-5-(1H-benzo[d][1,2,3]triazole-5-carbonyl)hexahydropyrrolo[3,4-c]pyrrol-2(1H)-yl)(5-bromo-6-(cyclopropylmethoxy)pyridin-3-yl)methanone], the pIC50 is 6.16.

Take `O=C(c1cnc(OCC(F)(F)F)c(C2CC2)c1)N1C[C@@H]2CN(C(=O)c3ccc4[nH]nnc4c3)C[C@H]2C1` [Example 19.42, ((3aS,6aS)-5-(1H-benzo[d][1,2,3]triazole-5-carbonyl)hexahydropyrrolo[3,4-c]pyrrol-2(1H)-yl)(5-cyclopropyl-6-(2,2,2-trifluoroethoxy)pyridin-3-yl)methanone]: the pIC50 is 8.00. The value for `O=C(c1cnc(OCC(F)(F)F)c(C(F)(F)F)c1)N1C[C@@H]2CN(C(=O)c3ccc4[nH]nnc4c3)C[C@H]2C1` [Example 19.43, ((3aS,6aS)-5-(1H-benzo[d][1,2,3]triazole-5-carbonyl)hexahydropyrrolo[3,4-c]pyrrol-2(1H)-yl)(6-(2,2,2-trifluoroethoxy)-5-(trifluoromethyl)pyridin-3-yl)methanone] was 7.85. The value for `O=C(c1ccc2[nH]nnc2c1)N1C[C@H]2CN(C(=O)N3CCC(c4ccc(Cl)cc4)CC3)C[C@@H]2C1` [Example 20, (1H-Benzotriazol-5-yl)-{(3aS,6aS)-5-[4-(4-chloro-phenyl)-piperidine-1-carbonyl]-hexahydro-pyrrolo[3,4-c]pyrrol-2-yl}-methanone] was 7.54. On to `O=C(c1ccc2[nH]nnc2c1)N1C[C@H]2CN(C(=O)N3CCN(c4ccc(Cl)cc4)CC3)C[C@@H]2C1` [Example 20.01, (1H-benzotriazol-5-yl)-{(3aS,6aS)-5-[4-(4-chloro-phenyl)-piperazine-1-carbonyl]-hexahydro-pyrrolo[3,4-c]pyrrol-2-yl}-methanone], for which the pIC50 is 6.52.
